For one data set, the system named is MS2 phage. Kind of data set: TEM of viral morphology damage, MS2. Set-up: species or system Bacteriophage MS2. The following applies: 50 ug/ml, dark and irradiated (FIGS. 34, 36, 38, 40). On the procedure: Transmission Electron Microscopy. High concentration of model viruses (˜10^11 PFU/ml for T4 phage, ˜10^12 PFU/ml for MS2 phage) and CPE/OPE (50 ug/ml) was used for TEM imaging (TEM images were generated in the UNM Electron Microscopy Shared Facility using a Hitachi H7500 transmission electron microscope.) Phage samples were prepared by adding 5 uL phage solutions onto carbon-coated copper grids (freshly cleaned by plasma cleaner) and standing for 2 minutes then rinsing with pure water. The negative stain, 2% aqueous solution of uranyl acetate, was adding onto the grids and standing for 2 minutes, the excess stain was removed by filter paper. The grid was dried in air.

The next data set relates to E.coli. Kind of data set: Dead/live assay, biocidal activity against E.coli. The class given is cell-based. As to conditions: under 365 nm radiation. On the procedure: Dead/live assays were performed to test the biocidal activity of EO-OPE-1(C3, A), EO-OPE-1 (C2, A), EO-OPE-1 (C3, S) and EO-OPE-1 (Th, C3, A) against E.coli, S.epidermis, and S.aureus. E.coli, S.epidermis, and S.aureus were cultured in 50 mL of Difco™ Nutrient broth (LOT 4057492, Becton, Dickinson and Company, Sparks, Md. 21152 USA), Difco™ Nutrient broth (LOT 4057492, Becton, Dickinson and Company, Sparks, Md. 21152 USA), and BBL™ Brain Heart Infusion (LOT 8263271, Becton, Dickinson and Company, Sparks, Md. 21152 USA), respectively, for 18 h at 37° C. under shaking. The bacteria were collected by centrifuging 50 mL of culture at 4,000 rpm in an Eppendorf centrifuge for 15 min at 4° C. […] Bacterial concentrations were measured and normalized using a disposal hemocytometer (INCYTO Co., Ltd), counts being 2.5˜3.0×10^7/mL. […]
Dead/live assays were carried out using two sets of stains: SYTO 9/Propidium iodide for E.coli and SYTO 24/Propidium iodide for S.epidermis and S.aureus. SYTO 9 and SYTO 24 are cell membrane permeant nucleic acid stains with green (˜498 nm for SYTO 9 and ˜515 nm for SYTO 24) fluorescence and used to stain both live and dead cells; Propidium iodide is a red-fluorescent nucleic acid stain that is membrane impermeable to viable cells but stains DNA or RNA of dead cells with comprised membranes and emits red (˜617 nm) fluorescence, indicating cell death. […]

A further data set concerns bacteriophage T4. Nature of the data set: Phage inactivation, phage titer (PFU), T4. The data set is classed as cell-based. The following applies: 10 ug/ml, in the dark, 1 hour. How it is done: Bacteriophage Preparation and Titer. E. coli cells were grown in the standard Luria broth. The fresh E. coli culture was inoculated from an overnight culture followed by approximately three hours incubation at 37° C. to the exponential growth phase (O.D.600˜0.5). At this growth phase, the E. coli cells were collected by centrifuge and washed with Escherichia coli minimal medium (Glucose 5 g/L, Na2HPO4 6 g/L, KH2PO4 3 g/L, NH4Cl 1 g/L, NaCl 0.5 g/L, MgSO4, 0.12 g/L, CaCl2 0.01 g/L, pH 7.2) twice. The cell pellet was resuspended with minimal medium. The phage stock solutions were added into their corresponding bacterial host suspensions the phage-bacteria mixture incubated for 15 minutes at 37° C. for infection. The phage-bacteria mixture was transferred into fresh Escherichia coli minimal medium and incubated overnight for viral replication. […] The phage titer was determined by plaque forming units (PFU). […] After 6˜8 hours incubation, the plaque forming units were counted and phage solutions were diluted to 10^6˜10^7 PFU/ml with the minimal medium for further use.
Phage Inactivation. […] The viral inactivation ability was determined by phage titer as stated above and calculated by log (N0/N), where N is the PFU of the phage solution after exposure to CPEs/OPEs; N0 represents the PFU of corresponding negative control (without CPEs, OPEs or UV-irradiation). […]

Data set [1] has as its system E.coli, S.epidermis, and S.aureus. Kind of data set: Dead/live assays, biocidal activity stated without singling out a bacterium. The class given is cell-based. The following applies: UV irradiation. How it is done: Dead/live assays were performed to test the biocidal activity of EO-OPE-1(C3, A), EO-OPE-1 (C2, A), EO-OPE-1 (C3, S) and EO-OPE-1 (Th, C3, A) against E.coli, S.epidermis, and S.aureus. E.coli, S.epidermis, and S.aureus were cultured in 50 mL of Difco™ Nutrient broth (LOT 4057492, Becton, Dickinson and Company, Sparks, Md. 21152 USA), Difco™ Nutrient broth (LOT 4057492, Becton, Dickinson and Company, Sparks, Md. 21152 USA), and BBL™ Brain Heart Infusion (LOT 8263271, Becton, Dickinson and Company, Sparks, Md. 21152 USA), respectively, for 18 h at 37° C. under shaking. The bacteria were collected by centrifuging 50 mL of culture at 4,000 rpm in an Eppendorf centrifuge for 15 min at 4° C. The pellet was re-suspended with the assistance of vortex in 25 mL of 0.85% NaCl solution and repelleted. The wash cycle was repeated twice. Bacterial concentrations were measured and normalized using a disposal hemocytometer (INCYTO Co., Ltd), counts being 2.5˜3.0×10^7/mL. The diluted bacteria suspension was added to 1.5 mL of black and transparent microtubes in aliquots of 500 μL for dark and light samples, respectively. Three groups of live controls were prepared with cells suspended in black microtubes, transparent microtubes, and quartz cuvettes at the same concentrations, but without chemicals. These bacteria samples were titrated by OPEs with various concentrations followed by staying in dark for dark samples/controls and exposing to UV irradiation in a photoreactor chamber for light samples/controls with certain duration.
Dead/live assays were carried out using two sets of stains: SYTO 9/Propidium iodide for E.coli and SYTO 24/Propidium iodide for S.epidermis and S.aureus. SYTO 9 and SYTO 24 are cell membrane permeant nucleic acid stains with green (˜498 nm for SYTO 9 and ˜515 nm for SYTO 24) fluorescence and used to stain both live and dead cells; Propidium iodide is a red-fluorescent nucleic acid stain that is membrane impermeable to viable cells but stains DNA or RNA of dead cells with comprised membranes and emits red (˜617 nm) fluorescence, indicating cell death. Upon the completion of the above treatment, a 1 to 1 ratio mixture of the two dyes was prepared and added into the samples (2.4 μL mixed dyes for 500 μL suspension) and incubated for 15 minutes in the dark. Bacteria were then examined under a 40× oil objective on a Zeiss LSM 510 Meta confocal laser scanning microscope and an Accuri C6 flow cytometer to identify and quantify those live and dead bacteria.

A short description of another data set: Solubility in solvents. The data set is classed as physicochemical.

This is an account of results in US10092000B2, “Structure, synthesis, and applications for oligo phenylene ethynylenes (OPEs)” (STC.UNM, priority 2010, dated 2018).

On to `C[N+](C)(C)CCCOc1ccc(C#Cc2ccc(C#Cc3ccc(OCCC[N+](C)(C)C)cc3)s2)cc1.[I-].[I-]` [EO-OPE-1 (Th, C3, A)], for which, in the data set on MS2 phage, the “morphology of treated MS2 phage by TEM” value was “Obvious morphology change”. For the same compound, the “killing of E. coli” value in the data set on E.coli was “kill”. For the same compound, in the data set with bacteriophage T4, the “dark antiviral activity against T4 phage” value is “significant dark antiviral activity”. For the same compound, the “light-induced biocidal activity” value in data set [1] is reported as “dramatic light-induced biocidal activity”. The “solubility in CH3OH” value in the data set “Solubility in solvents” (CH3OH) is given as “moderately soluble”. Further, in the data set “Solubility in solvents” (DMF and DMSO), the “solubility in DMF and DMSO” value is “quite soluble”. The “solubility in water” value in the data set “Solubility in solvents” (water) is recorded as “poorly soluble”.
